Results reported in patent US8895502B2, “β2-glycoprotein I peptide inhibitors” (Kansas State University Research Foundation, priority 2010, dated 2014).
“Also recorded” adds a separate entry of the source. Ends that are not written are not given here.

What was measured:
B16-F10 mouse melanoma = test: B16-F10 melanoma model, tumor growth and vascularization; type: in vivo
Protocol: The mouse melanoma cell line, B16-F10 (ATCC CRL-6475), was cultured in DMEM supplemented with 10% fetal bovine serum at 8% CO2 until confluent. C57Bl/6 mice were injected subcutaneously with 2×10^6 cells mixed 1:1 in matrigel (BD Biosciences) and tumor growth was evaluated daily for up to 10 days using calipers. Some mice received 40 μM peptide daily for the first 4 days and then every other day until termination of the study. Control mice received N. saline. At the end of the study, the tumors were dissected and tumor volume determined by saline displacement. Photomicrographs (10×) of representative B16-F10 tumors extracted from C57Bl/6 wildtype mice were taken with a Nikon CoolSnap CF camera and an Olympus SZ61 microscope.
The study was repeated using additional C57Bl/6 mice, which were injected subcutaneously with 2×10^6 cells mixed with matrigel (above) 6-10 days before tumor excision. Peptide treated mice received 40 μM peptide 296Cys-Ser on days 1, 2, 3, 4, 6, and 8 after injection (n=2-5 animals/group) or days 3, 5, 7, 9 or only on days 4, 6, and 8. At the end of the study, the tumors were excised, measured, and volume was determined by aqueous displacement. Tumors were cut in half longitudinally with one half homogenized in Trizol for RNA and the other placed in OCT for histological analysis. Both halves were snap frozen and stored at −80° C. until used.

[1] = tested on: Fvb/N-Tg(MMTV-PyVT)634Mul/J mice mammary tumors; test: Spontaneous breast cancer model, tumor growth; type: in vivo, mouse; settings: 40 μM retro-orbital 3 times per week for 7 weeks after palpable tumor
Protocol: Ten […] Fvb/N-Tg(MMTV-PyVT)634Mul/J mice were generously donated by T. A. Nguyen and maintained under 12 h light/dark cycles at Kansas State University, Division of Biology (Manhattan, Kans.). These mice are Her2^+ Estrogen receptor α/β^+, Progesterone receptor^+, p53^+ animal models that spontaneously develop breast cancer. All mice were allowed access to food and water ad libitum and maintained under specific pathogen free conditions. Research was conducted in compliance with the Animal Welfare Act and other federal statutes and regulations relating to animals and experiments involving animals and was approved by the Institutional Animal Care and Use Committee.
Mice were observed 3 times a week until tumors were palpable. Randomly, mice were assigned to receive treatment with N. Saline or peptide 296c-s. Each peptide treated mouse received β2-Glycoprotein 1 Peptide 296c-s (40 μM) by retro-orbital injection three times a week for 7 additional weeks. N. Saline treated mice received the same volume (80 μL) of 0.15M normal saline retro-orbitally three times a week as a control group.
Tumors were measured by hand with calipers three times a week for 7 weeks after the start of injection. After 7 weeks, the mice were briefly anesthetized using isofluorene followed by cervical dislocation euthanization and the tumors were harvested. The tumors were measured volumetrically. […]

CD31 [2] = test: B16-F10 melanoma model, CD31 expression in tumors; type: in vivo, mouse
Protocol: (§1) mRNA was isolated from the tumor samples that were homogenized in Trizol. The concentration of mRNA was evaluated by nanodrop and the purity by bioanalyzer. cDNA was then synthesized using random primers with the Quanta cDNA synthesis kit. Real-time PCR was then performed on a 1:100 dilution of cDNA for 18s rRNA. After 3 min denaturing at 95° C., the real-time PCR reaction consisted of 50 cycles (of 10 sec at 95° C., 20 sec at 58° C., and 10 sec at 72° C.), followed by a melt curve increasing at intervals of 0.5° from 60° C. to 95° C. RT-PCR was also performed on cDNA samples for CD31 and endoglin which are endothelial markers of angiogenesis. Fold change of each gene was determined by subtracting 18s for normalization of RNA and fold change was determined by comparing to original cells which were set to 1. Primers were obtained from Integrated DNA Technology (Coraville, Iowa) and sequences are in the table below.
OCT cryopreserved tumor sections were cut and stained similar to intestinal sections in Example 1. CD31 and Pan-endothelial expression was detected by FITC conjugated rat anti-mouse CD31 or pan-endothelial antibodies (Biolegend, San Diego, Calif.). Each experiment contained serial sections stained with the appropriate isotype control antibodies. All slides were mounted with ProLong Gold (Invitrogen) and images were obtained and analyzed as described in Example 1.

endoglin = test: B16-F10 melanoma model, endoglin expression in tumors; type: in vivo, mouse; settings: peptide treatment on days 1-4, 6, and 8, qRT-PCR
Protocol: as §1

CD31 [3] = test: Spontaneous breast cancer model, CD31 RNA expression; type: in vivo, mouse; settings: mammary tumors, compared to saline treated animals
Protocol: as §1, with “RT-PCR” for “Real-time PCR”, “0.5° C.” for “0.5°”, “VEGF” for “endoglin”, “After” for “Fold change of each gene was determined by”, “Ct values, peptide treated dCt values were normalized to saline treated samples” for “for normalization of RNA”, “calculated as ddCt.” for “was determined by comparing to original cells which were set to 1.”

H-IHFYSKNKEKKSSYTVEAHSRDGTI-OH [peptide 296Cys-Ser]
tumor vascularization (appearance) (B16-F10 mouse melanoma; 2 mice injected with melanoma cells and peptide): neither tumor appear vascularized | tumor volume, normal saline displaced (B16-F10 mouse melanoma; 2 mice injected with melanoma cells and peptide, day 8): 0 to 0.1 mL | animals in which the tumor was either not present or had significantly diminished from the day of injection (B16-F10 mouse melanoma; early treatment (days 1-4, 6, 8)): 3 of 7 | angiogenesis in the B16F10 melanoma model (B16-F10 mouse melanoma; mouse, in vivo): attenuates angiogenesis | tumor growth and volume (B16-F10 mouse melanoma; repeat study, compared to untreated mice): significantly decreased | tumor growth (B16-F10 mouse melanoma; treatment on days 1-4, 6, and 8): attenuated tumor growth; also recorded: prevented growth | tumor growth (B16-F10 mouse melanoma; treatment on days 3, 5, 7, and 9): attenuated tumor growth | percent tumor growth compared to initial measurements [1]: significantly decreased | protein expression of both endothelial markers (CD31 [2]; immunohistochemistry of tumors): decreased | CD31 RNA expression within the tumors (CD31 [2]; peptide treatment on days 1-4, 6, and 8, qRT-PCR): attenuated | endoglin RNA expression within the tumors (endoglin): attenuated | RNA expression of CD31 (CD31 [3]): significantly decreased
